Laboratory results from PubChem BioAssay (NCI).
Several values for one entry are separate records, joined by “and”; a condition that tells them apart may be missing. Equal entries are not always repeated.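 Compound exposure: 48 hours, 5 concentrations, 96-well plates. The concentration for 50% growth inhibition is given as GI50. TGI is the concentration that stops growth completely.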

Assays:
Assay in all cases: growth of human tumour cells (NCI), 48 h
[1] = system: RXF 393 renal
[2] = system: MALME-3M melanoma
[3] = system: SR leukemia
[4] = system: HCT-116 colon
[5] = system: HOP-92 NSCLC
[6] = system: A549 NSCLC
[7] = system: U251 CNS
[8] = system: CAKI-1 renal
[9] = system: UO-31 renal
[10] = system: SK-MEL-28 melanoma
[11] = system: HCC-2998 colon
[12] = system: LOX IMVI melanoma
[13] = system: OVCAR-4 ovarian
[14] = system: NCI-H23 lung
[15] = system: SW-620 colon
[16] = system: SNB-75 CNS
[17] = system: OVCAR-8 ovarian
[18] = system: NCI-H522 lung
[19] = system: KM12 colon
[20] = system: LXFL 529 NSCLC
[21] = system: NCI-H460 lung
[22] = system: SNB-78 CNS
[23] = system: SF-268 CNS
[24] = system: SNB-19 CNS
[25] = system: M14 melanoma
[26] = system: 786-0 renal
[27] = system: SF-295 CNS
[28] = system: SK-MEL-2 melanoma
[29] = system: NCI-H226 lung
[30] = system: M19-MEL melanoma
[31] = system: KM20L2 colon
[32] = system: SF-539 CNS
[33] = system: TK-10 renal
[34] = system: UACC-257 melanoma
[35] = system: HT29 colon
[36] = system: DLD-1 colon
[37] = system: OVCAR-3 ovarian
[38] = system: HL-60(TB) leukemia
[39] = system: HOP-62 NSCLC
[40] = system: OVCAR-5 ovarian
[41] = system: SN12C renal
[42] = system: COLO 205 colon
[43] = system: EKVX NSCLC
[44] = system: HCT-15 colon
[45] = system: A498 renal
[46] = system: MDA-MB-435
[47] = system: NCI/ADR-RES ovarian
[48] = system: PC-3 prostate
[49] = system: BT-549 breast
[50] = system: K-562 leukemia
[51] = system: UACC-62 melanoma
[52] = system: SK-MEL-5 melanoma
[53] = system: CCRF-CEM leukemia
[54] = system: DU-145 prostate
[55] = system: MOLT-4 leukemia
[56] = system: HS 578T breast
[57] = system: RPMI-8226 leukemia
[58] = system: IGROV1 ovarian
[59] = system: MDA-N
[60] = system: ACHN renal
[61] = system: MCF7 breast
[62] = system: T-47D breast
[63] = system: SK-OV-3 ovarian
[64] = system: MDA-MB-231 breast
[65] = system: XF 498 CNS

CC1=CC(N2C(=O)C(C)=CC2O)NC1=O (configuration not stated)
TGI [1]: > 100 µM | TGI [2]: > 100 µM | TGI [3]: > 100 µM | TGI [4]: > 100 µM | TGI [5]: > 100 µM | TGI [6]: > 100 µM | TGI [7]: > 100 µM | TGI [8]: > 100 µM | TGI [9]: > 100 µM | TGI [10]: > 100 µM | TGI [11]: > 100 µM | TGI [12]: > 100 µM | TGI [13]: > 100 µM | TGI [14]: > 100 µM | TGI [15]: > 100 µM | TGI [16]: > 100 µM | TGI [17]: > 100 µM | TGI [18]: > 100 µM | TGI [19]: > 100 µM | TGI [20]: > 100 µM | TGI [21]: > 100 µM | TGI [22]: > 100 µM | TGI [23]: > 100 µM | TGI [24]: > 100 µM | TGI [25]: > 100 µM | TGI [26]: > 100 µM | TGI [27]: > 100 µM | TGI [28]: > 100 µM | TGI [29]: > 100 µM | TGI [30]: > 100 µM | TGI [31]: > 100 µM | TGI [32]: > 100 µM | TGI [33]: > 100 µM | TGI [34]: > 100 µM | TGI [35]: > 100 µM | TGI [36]: > 100 µM | TGI [37]: > 100 µM | TGI [38]: > 100 µM | TGI [39]: > 100 µM | TGI [40]: > 100 µM | TGI [41]: > 100 µM | TGI [42]: > 100 µM | TGI [43]: > 100 µM

COc1cc2c(cc1OC)C1Cc3cc(OC)c(OC)cc3C(C2)N1C
TGI [1]: > 75 µM | TGI [44]: > 100 µM | TGI [2]: > 100 µM | TGI [4]: > 75 µM | TGI [5]: > 75 µM | TGI [6]: > 100 µM | TGI [7]: > 100 µM | TGI [8]: > 100 µM | TGI [45]: > 100 µM | GI50 [9]: 19.7 µM and 40.5 µM | TGI [9]: > 100 µM | TGI [46]: > 75 µM | TGI [10]: > 100 µM | TGI [47]: > 75 µM | TGI [11]: > 100 µM | TGI [12]: > 75 µM | TGI [48]: > 75 µM | TGI [49]: > 75 µM | TGI [13]: > 100 µM | TGI [50]: > 100 µM | TGI [51]: > 75 µM | TGI [14]: > 100 µM | TGI [15]: > 100 µM | TGI [16]: > 100 µM | TGI [17]: > 100 µM | TGI [18]: > 100 µM | TGI [52]: > 100 µM | TGI [19]: > 100 µM | TGI [20]: > 100 µM | GI50 [21]: 30.3 µM and 78.9 µM | TGI [21]: > 100 µM | GI50 [53]: 27.4 µM and > 100 µM | TGI [53]: > 100 µM | TGI [54]: > 75 µM | TGI [22]: > 100 µM | TGI [23]: > 100 µM | TGI [24]: > 100 µM | TGI [25]: > 100 µM | TGI [26]: > 100 µM | TGI [27]: > 100 µM | TGI [28]: > 100 µM | TGI [29]: > 75 µM | TGI [55]: > 100 µM | TGI [56]: > 75 µM | TGI [31]: > 100 µM | TGI [32]: > 75 µM | GI50 [57]: 17.1 µM and > 100 µM | TGI [57]: > 100 µM | GI50 [33]: 36.3 µM and > 100 µM | TGI [33]: > 100 µM | TGI [34]: > 100 µM | TGI [58]: > 75 µM | TGI [59]: > 75 µM | GI50 [35]: 23.5 µM and 54 µM | TGI [35]: > 100 µM | TGI [60]: > 100 µM | TGI [36]: > 100 µM | TGI [37]: > 100 µM | TGI [38]: > 75 µM | TGI [61]: > 75 µM | TGI [62]: > 75 µM | TGI [63]: > 75 µM | TGI [39]: > 100 µM | TGI [64]: > 75 µM | TGI [40]: > 100 µM | TGI [41]: > 100 µM | TGI [42]: > 75 µM | TGI [65]: > 100 µM | TGI [43]: > 100 µM
